Reference: ChEMBL document CHEMBL4038307, “Influence of a Basic Side Chain on the Properties of Hypoxia-Selective Nitro Analogues of the Duocarmycins: Demonstration of Substantial Anticancer Activity in Combination with Irradiation or Chemotherapy” (J Med Chem, 2017)
The source made the active and inactive calls. The rule behind the calls is not given here.

Assays:
SiHa [1] = experiment: Antitumor activity against human SiHa cells xenografted in CD-1 Foxn1 nude mouse assessed as reduction in colony forming cells under hypoxic condition at 23.7 umol/kg, iv treated 5 mins after gamma irradiation measured after 18 hrs by excision assay; type: functional, organism-based
NCI-H460 [2] = experiment: Antitumor activity against human H460 cells xenografted in CD-1 Foxn1 nude mouse assessed as reduction in colony forming cells under hypoxic condition at 23.7 umol/kg, iv treated 5 mins after gamma irradiation measured after 18 hrs by excision assay; type: functional, organism-based
HT-29 [3] = experiment: Ratio of IC50 for human HT-29 cells under oxic condition to IC50 for human HT-29 cells under hypoxic condition; type: functional
SiHa [4] = experiment: Ratio of IC50 for human SiHa cells under oxic condition to IC50 for human SiHa cells under hypoxic condition; type: functional
HT-29 [5] = experiment: Cytotoxicity against human HT-29 cells incubated for 4 hrs under hypoxic condition measured after 5 days by SRB assay; type: functional, cell-based
HT-29 [6] = experiment: Cytotoxicity against human HT-29 cells incubated for 4 hrs under oxic condition measured after 5 days by SRB assay; type: functional, cell-based
SiHa [7] = experiment: Cytotoxicity against human SiHa cells incubated for 4 hrs under hypoxic condition measured after 5 days by SRB assay; type: functional, cell-based
SiHa [8] = experiment: Cytotoxicity against human SiHa cells incubated for 4 hrs under oxic condition measured after 5 days by SRB assay; type: functional, cell-based
NCI-H460 [9] = experiment: Antitumor activity against human H460 cells xenografted in CD-1 Foxn1 nude mouse assessed as reduction in colony forming cells under hypoxic condition at 75 umol/kg, iv treated 5 mins after gamma irradiation measured after 18 hrs by excision assay; type: functional, organism-based
SiHa [10] = experiment: Antitumor activity against human SiHa cells xenografted in CD-1 Foxn1 nude mouse assessed as log reduction in colony forming cells under hypoxic condition at 42 umol/kg, iv treated 5 mins after gamma irradiation measured after 18 hrs by excision assay; type: functional
HCT-116 = experiment: Antitumor activity against human HCT116 cells xenografted in CD-1 Foxn1 nude mouse assessed as reduction in colony forming cells at 56 umol/kg, iv treated 5 mins after gamma irradiation measured after 18 hrs by excision assay; type: functional, organism-based
CWR22R = experiment: Antitumor activity against human 22Rv1 cells xenografted in CD-1 Foxn1 nude mouse assessed as reduction in colony forming cells under hypoxic condition at 30 umol/kg, iv treated 5 mins after gamma irradiation measured after 18 hrs by excision assay; type: functional, organism-based
NCI-H1299 = experiment: Antitumor activity against human H1299 cells xenografted in CD-1 Foxn1 nude mouse assessed as reduction in colony forming cells at 75 umol/kg, iv treated 5 mins after gamma irradiation measured after 18 hrs by excision assay; type: functional, organism-based
Mus musculus [11] = experiment: Toxicity in CD-1 Foxn1 nude mouse xenografted with human SiHa cells assessed as death at 13 umol/kg, iv; details: in vivo
Mus musculus [12] = experiment: Toxicity in CD-1 Foxn1 nude mouse xenografted with human H460 cells assessed as death at 13 umol/kg, iv; details: in vivo
Mus musculus [13] = experiment: Toxicity in CD-1 Foxn1 nude mouse xenografted with human H460 cells assessed as death at 75 umol/kg, iv; details: in vivo
Mus musculus [14] = experiment: Toxicity in CD-1 Foxn1 nude mouse xenografted with human SiHa cells assessed as death at 75 umol/kg, iv; details: in vivo
NCI-H460 [15] = experiment: Antitumor activity against human H460 cells xenografted in CD-1 Foxn1 nude mouse assessed as log reduction in colony forming cells under hypoxic condition at 56 umol/kg, iv treated 5 mins after gamma irradiation measured after 18 hrs by excision assay; type: functional
NCI-H460 [16] = experiment: Antitumor activity against human H460 cells xenografted in CD-1 Foxn1 nude mouse assessed as reduction in colony forming cells under hypoxic condition at 13.3 umol/kg, iv treated 5 mins after gamma irradiation measured after 18 hrs by excision assay; type: functional, organism-based

| SMILES | Ratio IC50 (HT-29 [3]) | Ratio IC50 (SiHa [4]) | Activity (HT-29 [5]) | Activity (HT-29 [6]) | Activity (SiHa [7]) | Activity (SiHa [8]) | also measured |
| --- | --- | --- | --- | --- | --- | --- | --- |
| CCN(CC)CCOc1ccc2[nH]c(C(=O)N3CC(CCl)c4c3cc([N+](=O)[O-])c3cc(S(=O)(=O)NCCOP(=O)(O)O)ccc43)cc2c1 (stereo not given) | – | – | – | – | – | – | Activity (SiHa [1]): Active; Activity (NCI-H460 [2]): inactive |
| CN(C)CCCOc1ccc2[nH]c(C(=O)N3CC(CCl)c4c3cc([N+](=O)[O-])c3cc(S(=O)(=O)NCCO)ccc43)cc2c1 (stereo not given) | 27 - 68 | 27 - 68 | – | – | – | – | – |
| CN(C)c1ccc2[nH]c(C(=O)N3CC(CCl)c4c3cc(N)c3cc(S(=O)(=O)NCCO)ccc43)cc2c1 (stereo not given) | 1 | 1 | Active | Active | Active | Active | – |
| CN(C)Cc1ccc2[nH]c(C(=O)N3CC(CCl)c4c3cc([N+](=O)[O-])c3cc(S(=O)(=O)NCCOP(=O)(O)O)ccc43)cc2c1 (stereo not given) | – | – | – | – | – | – | Activity (NCI-H460 [9]): inactive; Activity (SiHa [10]): Active |
| O=C(c1cc2cc(OCCCN3CCOCC3)ccc2[nH]1)N1CC(CCl)c2c1cc([N+](=O)[O-])c1cc(S(=O)(=O)NCCO)ccc21 (stereo not given) | – | – | inactive | – | inactive | – | – |
| CN(C)Cc1ccc2[nH]c(C(=O)N3CC(CCl)c4c3cc([N+](=O)[O-])c3cc(S(=O)(=O)NCCO)ccc43)cc2c1 (stereo not given) | 27 - 68 | 27 - 68 | – | – | – | – | – |
| O=C(NCCOP(=O)(O)O)c1ccc2c3c(cc([N+](=O)[O-])c2c1)N(C(=O)/C=C/c1ccc(OCCN2CCOCC2)cc1)CC3CCl (stereo not given) | – | – | – | – | – | – | Activity (NCI-H460 [9]): Active; Activity (SiHa [10]): Active |
| CN(C)CCCOc1ccc2[nH]c(C(=O)N3CC(CCl)c4c3cc([N+](=O)[O-])c3cc(S(=O)(=O)NCCOP(=O)(O)O)ccc43)cc2c1 (stereo not given) | – | – | – | – | – | – | Activity (HCT-116): Active; Activity (CWR22R): Active; Activity (NCI-H1299): Active |
| CCN(CC)CCOc1ccc2[nH]c(C(=O)N3CC(CCl)c4c3cc([N+](=O)[O-])c3cc(S(=O)(=O)NCCO)ccc43)cc2c1 (stereo not given) | 27 - 68 | 27 - 68 | – | – | – | – | – |
| CN(C)CC(=O)Nc1ccc2[nH]c(C(=O)N3CC(CCl)c4c3cc(N)c3cc(S(=O)(=O)NCCO)ccc43)cc2c1 (stereo not given) | 1 | 1 | Active | Active | Active | Active | – |
| CN(C)CCOc1ccc2[nH]c(C(=O)N3CC(CCl)c4c3cc(N)c3cc(S(=O)(=O)NCCO)ccc43)cc2c1 (stereo not given) | 1 | 1 | Active | Active | Active | Active | – |
| Nc1cc2c(c3ccc(S(=O)(=O)NCCO)cc13)C(CCl)CN2C(=O)CCN1CCOCC1 (stereo not given) | 1 | 1 | Active | Active | Active | Active | – |
| O=C(NCCOP(=O)(O)O)c1ccc2c3c(cc([N+](=O)[O-])c2c1)N(C(=O)c1cc2cc(OCCN4CCOCC4)ccc2[nH]1)CC3CCl (stereo not given) | – | – | – | – | – | – | Activity (SiHa [10]): >1 |
| Nc1cc2c(c3ccc(S(=O)(=O)NCCO)cc13)C(CCl)CN2C(=O)/C=C/c1ccc(OCCCN2CCOCC2)cc1 (stereo not given) | 1 | 1 | Active | Active | Active | Active | – |
| CN(C)CCC(=O)Nc1ccc2[nH]c(C(=O)N3CC(CCl)c4c3cc(N)c3cc(S(=O)(=O)NCCO)ccc43)cc2c1 (stereo not given) | 1 | 1 | Active | Active | Active | Active | – |
| CN(C)CCOc1ccc2[nH]c(C(=O)N3CC(CCl)c4c3cc([N+](=O)[O-])c3cc(C(=O)NCCO)ccc43)cc2c1 (stereo not given) | – | – | Active | Active | – | – | – |
| O=C(c1cc2cc(OCCCN3CCOCC3)ccc2[nH]1)N1CC(CCl)c2c1cc([N+](=O)[O-])c1cc(S(=O)(=O)NCCOP(=O)(O)O)ccc21 (stereo not given) | – | – | – | – | – | – | Activity (NCI-H460 [9]): Active; Activity (HCT-116): Active; Activity (CWR22R): Active; Activity (SiHa [10]): >1; Activity (NCI-H1299): Active |

| SMILES | Ratio IC50 (HT-29 [3]) | Ratio IC50 (SiHa [4]) | Activity (HT-29 [5]) | Activity (HT-29 [6]) | Activity (SiHa [7]) | Activity (SiHa [8]) | also measured |
| --- | --- | --- | --- | --- | --- | --- | --- |
| CN(C)CCCOc1ccc2[nH]c(C(=O)N3CC(CCl)c4c3cc(N)c3cc(S(=O)(=O)NCCO)ccc43)cc2c1 (stereo not given) | 1 | 1 | Active | Active | Active | Active | – |
| CN(C)CCOc1ccc2[nH]c(C(=O)N3CC(CCl)c4c3cc([N+](=O)[O-])c3cc(C(=O)NCCOP(=O)(O)O)ccc43)cc2c1 (stereo not given) | – | – | – | – | – | – | Activity (HCT-116): Active; Activity (CWR22R): Active; Activity (SiHa [10]): Active; Activity (NCI-H1299): Active |
| Nc1cc2c(c3ccc(S(=O)(=O)NCCO)cc13)C(CCl)CN2C(=O)c1cc2cc(OCCCN3CCOCC3)ccc2[nH]1 (stereo not given) | 1 | 1 | Active | Active | Active | Active | – |
| COc1cc2cc(C(=O)N3CC(CCl)c4c3cc(N)c3cc(S(=O)(=O)NCCO)ccc43)[nH]c2c(OC)c1OC (stereo not given) | 1 | 1 | Active | Active | Active | Active | – |
| Nc1cc2c(c3ccc(S(=O)(=O)NCCO)cc13)C(CCl)CN2C(=O)/C=C/c1ccc(OCCN2CCOCC2)cc1 (stereo not given) | 1 | 1 | Active | Active | Active | Active | – |
| CN(C)CCOc1ccc2[nH]c(C(=O)N3CC(CCl)c4c3cc([N+](=O)[O-])c3cc(S(=O)(=O)NCCO)ccc43)cc2c1 (stereo not given) | – | – | Active | Active | – | – | – |
| CN(C)CCC(=O)Nc1ccc2[nH]c(C(=O)N3CC(CCl)c4c3cc([N+](=O)[O-])c3cc(S(=O)(=O)NCCOP(=O)(O)O)ccc43)cc2c1 (stereo not given) | – | – | – | – | – | – | Activity (Mus musculus [11]): Toxic; Activity (Mus musculus [12]): Toxic |
| Nc1cc2c(c3ccc(S(=O)(=O)NCCO)cc13)C(CCl)CN2C(=O)c1cc2cc(OCCN3CCOCC3)ccc2[nH]1 (stereo not given) | 1 | 1 | Active | Active | Active | Active | – |
| CN(C)CC(=O)Nc1ccc2[nH]c(C(=O)N3CC(CCl)c4c3cc([N+](=O)[O-])c3cc(S(=O)(=O)NCCOP(=O)(O)O)ccc43)cc2c1 (stereo not given) | – | – | – | – | – | – | Activity (Mus musculus [13]): Non-Toxic; Activity (Mus musculus [14]): Non-Toxic |
| Nc1cc2c(c3ccc(S(=O)(=O)NCCO)cc13)C(CCl)CN2C(=O)c1ccc(OCCN2CCOCC2)cc1 (stereo not given) | 1 | 1 | Active | Active | Active | Active | – |
| O=C(/C=C/c1ccc(OCCCN2CCOCC2)cc1)N1CC(CCl)c2c1cc([N+](=O)[O-])c1cc(S(=O)(=O)NCCOP(=O)(O)O)ccc21 (stereo not given) | – | – | – | – | – | – | Activity (NCI-H460 [9]): Active; Activity (SiHa [10]): Active |
| O=C(/C=C/c1ccc(OCCN2CCOCC2)cc1)N1CC(CCl)c2c1cc([N+](=O)[O-])c1cc(S(=O)(=O)NCCOP(=O)(O)O)ccc21 (stereo not given) | – | – | – | – | – | – | Activity (NCI-H460 [15]): >1; Activity (NCI-H460 [9]): Active; Activity (SiHa [10]): Active |
| O=C(c1cc2cc(OCCN3CCOCC3)ccc2[nH]1)N1CC(CCl)c2c1cc([N+](=O)[O-])c1cc(S(=O)(=O)NCCO)ccc21 (stereo not given) | – | – | inactive | – | inactive | – | – |
| O=C(CCN1CCOCC1)N1CC(CCl)c2c1cc([N+](=O)[O-])c1cc(S(=O)(=O)NCCOP(=O)(O)O)ccc21 (stereo not given) | – | – | – | – | – | – | Activity (NCI-H460 [9]): inactive; Activity (SiHa [10]): Active |
| CCN(CC)CCOc1ccc2[nH]c(C(=O)N3CC(CCl)c4c3cc(N)c3cc(S(=O)(=O)NCCO)ccc43)cc2c1 (stereo not given) | 1 | 1 | Active | Active | Active | Active | – |
| CN(C)Cc1ccc2[nH]c(C(=O)N3CC(CCl)c4c3cc(N)c3cc(S(=O)(=O)NCCO)ccc43)cc2c1 (stereo not given) | 1 | 1 | Active | Active | Active | Active | – |
| O=C(c1ccc(OCCN2CCOCC2)cc1)N1CC(CCl)c2c1cc([N+](=O)[O-])c1cc(S(=O)(=O)NCCOP(=O)(O)O)ccc21 (stereo not given) | – | – | – | – | – | – | Activity (NCI-H460 [16]): inactive; Activity (SiHa [10]): Active |
